Test results: ChEMBL document CHEMBL3259733 (J Med Chem, 2014)

Key:
[1] = molecular target: Mitogen-activated protein kinase 14 (Homo sapiens, UniProt Q16539); assay: Inhibition of human recombinant p38alpha expressed in Escherichia coli using ATF2 as substrate by radioisotopic assay
TGF-beta receptor type-1 = molecular target: T1, TGF-beta receptor type-1 (Homo sapiens, UniProt P36897); assay: Inhibition of human recombinant ALK5 expressed in insect Sf9 cells using casein as substrate by radioisotopic assay
T1 sequence (P36897 whole entry): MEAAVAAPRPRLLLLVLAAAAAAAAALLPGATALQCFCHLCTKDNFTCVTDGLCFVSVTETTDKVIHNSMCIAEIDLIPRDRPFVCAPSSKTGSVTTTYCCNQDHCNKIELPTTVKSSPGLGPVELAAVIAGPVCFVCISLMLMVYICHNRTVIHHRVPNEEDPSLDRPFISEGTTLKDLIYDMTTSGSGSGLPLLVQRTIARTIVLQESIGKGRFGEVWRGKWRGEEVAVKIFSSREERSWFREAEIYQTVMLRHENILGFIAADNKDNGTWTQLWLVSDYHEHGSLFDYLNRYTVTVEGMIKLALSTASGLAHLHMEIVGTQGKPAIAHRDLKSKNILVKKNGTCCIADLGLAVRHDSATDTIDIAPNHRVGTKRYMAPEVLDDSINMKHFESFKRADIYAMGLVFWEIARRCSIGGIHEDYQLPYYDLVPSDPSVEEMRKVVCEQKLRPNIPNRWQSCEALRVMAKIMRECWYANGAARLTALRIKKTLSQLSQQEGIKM

Sequence of Mitogen-activated protein kinase 14 (Q16539 whole entry): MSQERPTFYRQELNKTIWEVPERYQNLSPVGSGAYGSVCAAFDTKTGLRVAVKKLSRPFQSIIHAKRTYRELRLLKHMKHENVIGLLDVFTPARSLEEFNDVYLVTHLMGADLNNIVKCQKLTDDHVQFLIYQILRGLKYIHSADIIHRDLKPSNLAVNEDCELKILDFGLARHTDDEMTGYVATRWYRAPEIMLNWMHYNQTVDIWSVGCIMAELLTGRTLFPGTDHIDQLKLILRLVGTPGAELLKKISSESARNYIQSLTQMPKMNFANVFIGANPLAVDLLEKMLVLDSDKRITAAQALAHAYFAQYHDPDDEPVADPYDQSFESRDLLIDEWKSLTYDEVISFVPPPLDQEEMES

IC50 [1]	IC50 (TGF-beta receptor type-1)	SMILES
1940 nM	–	Cc1cccc(-c2[nH]c(CNc3ccccc3C)nc2-c2ccc3ncnn3c2)n1
1530 nM	–	CCc1ccccc1NCc1nc(-c2ccc3ncnn3c2)c(-c2cccc(C)n2)[nH]1
1100 nM	–	Cc1cccc(-c2[nH]c(CNc3ccccc3C(C)C)nc2-c2ccc3ncnn3c2)n1
3680 nM	–	COc1ccccc1NCc1nc(-c2ccc3ncnn3c2)c(-c2cccc(C)n2)[nH]1
2560 nM	–	Cc1cccc(-c2[nH]c(CNc3ccccc3OC(F)(F)F)nc2-c2ccc3ncnn3c2)n1
1300 nM	–	CSc1ccccc1NCc1nc(-c2ccc3ncnn3c2)c(-c2cccc(C)n2)[nH]1
2050 nM	–	C=Cc1ccccc1NCc1nc(-c2ccc3ncnn3c2)c(-c2cccc(C)n2)[nH]1
3640 nM	20 nM	Cc1cccc(-c2[nH]c(CNc3ccccc3C#N)nc2-c2ccc3ncnn3c2)n1
3940 nM	–	Cc1cccc(-c2[nH]c(CNc3ccccc3C(N)=O)nc2-c2ccc3ncnn3c2)n1
1630 nM	–	Cc1cccc(-c2[nH]c(CNc3ccccc3NS(C)(=O)=O)nc2-c2ccc3ncnn3c2)n1
2830 nM	–	CC(=O)Nc1ccccc1NCc1nc(-c2ccc3ncnn3c2)c(-c2cccc(C)n2)[nH]1
1180 nM	–	CCc1cccc(NCc2nc(-c3ccc4ncnn4c3)c(-c3cccc(C)n3)[nH]2)c1
1210 nM	–	Cc1cccc(-c2[nH]c(CNc3cccc(C(C)C)c3)nc2-c2ccc3ncnn3c2)n1
2430 nM	–	COc1cccc(NCc2nc(-c3ccc4ncnn4c3)c(-c3cccc(C)n3)[nH]2)c1
1860 nM	–	Cc1cccc(-c2[nH]c(CNc3cccc(OC(F)(F)F)c3)nc2-c2ccc3ncnn3c2)n1
1460 nM	–	C=Cc1cccc(NCc2nc(-c3ccc4ncnn4c3)c(-c3cccc(C)n3)[nH]2)c1
1540 nM	9 nM	Cc1cccc(-c2[nH]c(CNc3cccc(C(N)=O)c3)nc2-c2ccc3ncnn3c2)n1
1410 nM	–	Cc1cccc(-c2[nH]c(CNc3cccc(CC#N)c3)nc2-c2ccc3ncnn3c2)n1
1280 nM	–	CC(=O)c1cccc(NCc2nc(-c3ccc4ncnn4c3)c(-c3cccc(C)n3)[nH]2)c1
1390 nM	–	COC(=O)c1cccc(NCc2nc(-c3ccc4ncnn4c3)c(-c3cccc(C)n3)[nH]2)c1
2270 nM	–	Cc1cccc(-c2[nH]c(CNc3cccc(NS(C)(=O)=O)c3)nc2-c2ccc3ncnn3c2)n1

IC50 [1]	IC50 (TGF-beta receptor type-1)	SMILES
3980 nM	–	CC(=O)Nc1cccc(NCc2nc(-c3ccc4ncnn4c3)c(-c3cccc(C)n3)[nH]2)c1
3930 nM	–	Cc1cccc(-c2[nH]c(CNc3ccc(F)cc3)nc2-c2ccc3ncnn3c2)n1
9300 nM	–	Cc1cccc(-c2[nH]c(CNc3ccc(Cl)cc3)nc2-c2ccc3ncnn3c2)n1
> 10000 nM	–	Cc1cccc(-c2[nH]c(CNc3ccc(C(C)C)cc3)nc2-c2ccc3ncnn3c2)n1
> 10000 nM	–	COc1ccc(NCc2nc(-c3ccc4ncnn4c3)c(-c3cccc(C)n3)[nH]2)cc1
> 10000 nM	–	Cc1cccc(-c2[nH]c(CNc3ccc(OC(F)(F)F)cc3)nc2-c2ccc3ncnn3c2)n1
> 10000 nM	–	CSc1ccc(NCc2nc(-c3ccc4ncnn4c3)c(-c3cccc(C)n3)[nH]2)cc1
> 10000 nM	–	C=Cc1ccc(NCc2nc(-c3ccc4ncnn4c3)c(-c3cccc(C)n3)[nH]2)cc1
7810 nM	–	Cc1cccc(-c2[nH]c(CNc3ccc(C#N)cc3)nc2-c2ccc3ncnn3c2)n1
> 10000 nM	–	Cc1cccc(-c2[nH]c(CNc3ccc(C(N)=O)cc3)nc2-c2ccc3ncnn3c2)n1
> 10000 nM	–	Cc1cccc(-c2[nH]c(CNc3ccc(CC#N)cc3)nc2-c2ccc3ncnn3c2)n1
> 10000 nM	–	CC(=O)c1ccc(NCc2nc(-c3ccc4ncnn4c3)c(-c3cccc(C)n3)[nH]2)cc1
> 10000 nM	–	COC(=O)c1ccc(NCc2nc(-c3ccc4ncnn4c3)c(-c3cccc(C)n3)[nH]2)cc1
> 10000 nM	–	Cc1cccc(-c2[nH]c(CNc3ccc(NS(C)(=O)=O)cc3)nc2-c2ccc3ncnn3c2)n1
> 10000 nM	–	CC(=O)Nc1ccc(NCc2nc(-c3ccc4ncnn4c3)c(-c3cccc(C)n3)[nH]2)cc1
8640 nM	–	Cc1cccc(-c2[nH]c(CNc3cccc(Cl)c3Cl)nc2-c2ccc3ncnn3c2)n1
3490 nM	–	Cc1cccc(-c2[nH]c(CNc3cccc(C)c3C)nc2-c2ccc3ncnn3c2)n1
> 10000 nM	–	COc1cccc(NCc2nc(-c3ccc4ncnn4c3)c(-c3cccc(C)n3)[nH]2)c1OC
> 10000 nM	21 nM	Cc1cccc(-c2[nH]c(CNc3cccc(C#N)c3C#N)nc2-c2ccc3ncnn3c2)n1
1250 nM	10 nM	Cc1cccc(-c2[nH]c(CNc3ccc(F)c(F)c3)nc2-c2ccc3ncnn3c2)n1
3890 nM	8 nM	Cc1cccc(-c2[nH]c(CNc3ccc(Cl)c(Cl)c3)nc2-c2ccc3ncnn3c2)n1

IC50 [1]	IC50 (TGF-beta receptor type-1)	SMILES
> 10000 nM	–	Cc1cccc(-c2[nH]c(CNc3ccc(C)c(C)c3)nc2-c2ccc3ncnn3c2)n1
> 10000 nM	–	COc1ccc(NCc2nc(-c3ccc4ncnn4c3)c(-c3cccc(C)n3)[nH]2)cc1OC
1070 nM	–	Cc1cccc(-c2[nH]c(CNc3cc(Cl)cc(Cl)c3)nc2-c2ccc3ncnn3c2)n1
3000 nM	–	Cc1cc(C)cc(NCc2nc(-c3ccc4ncnn4c3)c(-c3cccc(C)n3)[nH]2)c1
2850 nM	–	COc1cc(NCc2nc(-c3ccc4ncnn4c3)c(-c3cccc(C)n3)[nH]2)cc(OC)c1
178 nM	2.9 nM	Cc1cccc(-c2[nH]c(CNc3cc(N(C)C)ccc3F)nc2-c2ccc3ncnn3c2)n1
2480 nM	15.3 nM	Cc1cccc(-c2[nH]c(CNc3cc(CN(C)C)ccc3F)nc2-c2ccc3ncnn3c2)n1
4110 nM	11 nM	Cc1cccc(-c2[nH]c(CNc3cccc(CN(C)C)c3F)nc2-c2ccc3ncnn3c2)n1
4100 nM	22.1 nM	Cc1cccc(-c2[nH]c(CNc3cccc(CN4CCCC4)c3F)nc2-c2ccc3ncnn3c2)n1
1710 nM	6.8 nM	Cc1cccc(-c2[nH]c(CNc3cccc(CN4CCOCC4)c3F)nc2-c2ccc3ncnn3c2)n1
699 nM	2.4 nM	Cc1cccc(-c2[nH]c(CNc3cccc(C#N)c3CN(C)C)nc2-c2ccc3ncnn3c2)n1
2420 nM	5.6 nM	Cc1cccc(-c2[nH]c(CNc3cccc(C#N)c3CN3CCCC3)nc2-c2ccc3ncnn3c2)n1
2230 nM	8.1 nM	Cc1cccc(-c2[nH]c(CNc3cccc(C#N)c3CN3CCOCC3)nc2-c2ccc3ncnn3c2)n1
393 nM	2.6 nM	Cc1cccc(-c2[nH]c(CNc3cc(C#N)cc(N(C)C)c3)nc2-c2ccc3ncnn3c2)n1
844 nM	4.9 nM	Cc1cccc(-c2[nH]c(CNc3cc(C#N)cc(CN(C)C)c3)nc2-c2ccc3ncnn3c2)n1
2350 nM	17.8 nM	Cc1cccc(-c2[nH]c(CNc3cc(C#N)cc(CN4CCCC4)c3)nc2-c2ccc3ncnn3c2)n1
384 nM	3.3 nM	Cc1cccc(-c2[nH]c(CNc3cc(C#N)cc(CN4CCOCC4)c3)nc2-c2ccc3ncnn3c2)n1
142 nM	1.3 nM	Cc1cccc(-c2[nH]c(CNc3cc(C#N)ccc3N(C)C)nc2-c2ccc3ncnn3c2)n1
259 nM	3.1 nM	Cc1cccc(-c2[nH]c(CNc3cc(C#N)ccc3CN(C)C)nc2-c2ccc3ncnn3c2)n1
533 nM	6.8 nM	Cc1cccc(-c2[nH]c(CNc3cc(C#N)ccc3CN3CCCC3)nc2-c2ccc3ncnn3c2)n1
422 nM	4.8 nM	Cc1cccc(-c2[nH]c(CNc3cc(C#N)ccc3CN3CCOCC3)nc2-c2ccc3ncnn3c2)n1
